Results: article PMC7187627 (Antimicrobial Agents and Chemotherapy, 2019)
Values after ≈ are worked out from the molar mass of the structure shown. “Also recorded” adds a separate entry of the source.

Legend:
gut microbiota = test: Fecal microbiome analysis by 16S rRNA gene sequencing; assay type: in vivo, human
Experimental: Fecal microbiota profiles were measured for each sample as each operational taxonomic unit (OTU) species present and the relative abundance of that species, based on a region of 469 bp encompassing the V3 and V4 hypervariable regions of the 16S rRNA gene, following protocols developed at the Department of Microbiology and Immunology, University of Maryland School of Medicine Institute for Genome Sciences, Baltimore, MD ([40][–][42]).
(i) Sample collection and storage and DNA extraction. Fecal samples were collected at nine time points during the study for fecal microbiome analysis: twice before the first dose, on days 1, 4, 7, 9, and 12, and approximately 24 h prior to follow-up visits on day 18 and day 29. The subject was allowed to collect and bring the first fecal sample when admitted (collected within 24 h of admission and kept refrigerated until collected by staff). DNA was extracted from 150 mg of archived stool samples stored at –80°C for 16S rRNA gene amplification and sequencing. Cell lysis was initiated by adding 50 μl of lyzosyme (10 mg/ml), 6 μl of mutanolysin (25,000 U/ml; Sigma-Aldrich), and 3 μl of lysostaphin (4,000 U/ml in sodium acetate; Sigma-Aldrich) and 41 μl of TE50 buffer (10 mM Tris-HCl, 50 mM EDTA [pH 8.0]). Following a 1-h incubation at 37°C, 10 μl of proteinase K (20 mg/ml), 100 μl of 10% SDS, and 20 μl of RNase A (20 mg/ml) were added to the mixture and incubated for 1 h at 55°C. Microbial cells were lysed by mechanical disruption using a bead beater (FastPrep instrument; Qbiogene) set at 6.0 m/s for 30 s. DNA was purified from the lysate using the QIAsymphony robotics platform, consistently providing between 5 and 20 μg of high-quality and amplifiable whole genomic DNA. Following DNA quantitation via the Quant-iTTM PicoGreen double-stranded DNA (dsDNA) assay kit (Life Technologies), samples were diluted to a 5-ng/μl concentration.
PCRs with dually barcoded 16S rRNA universal primers (319F/806R) were set up using a semiautomated platform with a ViaFlo 96 high-performance 96-channel pipettor and performed on Bio-Rad Tetrad 2 instruments with up to 576 dual index barcoding ([40]). […] The cycling parameters were 30 s of denaturation at 98°C, followed by 30 cycles of 15 s at 98°C (denaturing), 15 s at 58°C (annealing), and 15 s at 72°C (elongation), with a final extension at 72°C for 60 s. Controls included a no-template control for each barcode combination, extraction controls, and a DNA sample of known composition (positive control). The presence of amplicons was confirmed by gel electrophoresis on a 2% E-gel 96. PCR products were normalized using the SequalPrep normalization kit (Life Technologies, Carlsbad, CA) and pooled in equimolar amounts (25 ng) in a single tube. Amplification primers and reaction buffer were removed from the pooled amplicon mixtures using an AMPure kit (Agencourt). The purified amplicon mixtures (up to 576 per pool) were sequenced on an Illumina MiSeq instrument using the 300-bp paired-end protocol (MiSeq 300PE) at the Genomics Resource Center (GRC) at the Institute for Genome Sciences, University of Maryland School of Medicine.
(iii) Bioinformatic analysis. For sequence quality control, assembly, and taxonomic assignments, a custom bioinformatics pipeline ([40]) was applied that relies on QIIME software ([43]), UCHIME ([44]), and the RDP Naïve Bayesian classifier ([45]). Baseline for fecal microbiome assessments was defined as the mean of the predose assessments on day 1. Presence was defined as positive abundance. The presence of each OTU species and the shift in presence/absence occurrence from baseline were tabulated by treatment. Shifts were categorized as no change, appearance, and disappearance.
Additional 16S rRNA data analysis was performed at the Division of Biomedical Informatics and Personalized Medicine, University of Colorado. Joined and quality-filtered sequences sharing >97% sequence similarity were binned as OTUs. […]

[1] = Drug product stability (ICH Q1A(R2)); assay type: physicochemical; conditions: 200-mg gelatin capsules, room temperature
From the text: CRS3123 was provided by Crestone, Inc., in the form of dihydrochloride salt (CRS3123.2HCl) and formulated into 200-mg gelatin capsules by SRI International (Palo Alto, CA). Drug product stability specifications were met beyond the study period [stable for at least 60 months storage at room temperature monitored according to ICH Guidance for Industry Q1A(R2) Stability Testing of New Substances and Products].

C. difficile [2] = tested on: C. difficile; parameters: method as in PMID 19258353; conditions: cited from earlier work
C. difficile [3] = tested on: C. difficile; parameters: method as in PMID 19258353, PMID 19251726; conditions: in vivo model of CDI, compared with vancomycin; cited from earlier work
[4] = parameters: method as in PMID 28584140; conditions: cited from earlier work
[5] = tested on: Bacterial strains that express type 2 MetRS; parameters: method as in PMID 19240076; conditions: most Gram-negative bacteria, Bacteroides, bifidobacteria, actinobacteria, lactobacilli; cited from earlier work

O=c1cc(NCCCN[C@@H]2CCOc3c(Br)cc(Br)cc32)[nH]c2ccsc12 [CRS3123]
median weighted UniFrac distance to placebo arm (community composition) (gut microbiota; 200 mg, day 9, P = 0.006): 0.361
proteobacteria, maximum relative abundance (gut microbiota; 200 mg, pretreatment value 0.8%): 1.6%
median weighted UniFrac distance to placebo arm (community composition) (gut microbiota; 400 mg, day 9, P = 0.027): 0.440
median weighted UniFrac distance to placebo arm (community composition) (gut microbiota; 400 mg, day 29, P = 0.177): 0.4480
proteobacteria, relative abundance (gut microbiota; 600 mg): < 10%
median weighted UniFrac distance to placebo arm (community composition) (gut microbiota; 600 mg, day 9, P = 0.013): 0.663
median weighted UniFrac distance to placebo arm (community composition) (gut microbiota; 600 mg, day 29, P = 0.077): 0.470
increase in proteobacteria (gut microbiota; 200-mg and 400-mg doses): did not see an increase
proportion of the major phyla in stool over time (gut microbiota; 200-mg dosing group, not different from placebo): minimal changes over time
relative abundance of Firmicutes (gut microbiota; 400-mg- and 600-mg-BID dosing groups, Bacteroidetes and Actinobacteria increased): decreased
changes in highly abundant intestinal genera (gut microbiota; after 9 days of twice-daily dosing, exception target genus Clostridium): no significant changes
loss of phyla during treatment (gut microbiota; any dose): no phyla were lost
time until composition was back to baseline levels after stopping the treatment (gut microbiota; any dose): ≤ 7 days
effect on commensal anaerobes (Bacteroides, bifidobacteria, Clostridium clusters XIVa and IV) (gut microbiota; stool microbiome of healthy subjects): inactive; also recorded: did not impact
percentage of subjects with Clostridium species isolated at baseline but not at subsequent visits (gut microbiota; treatment phase, day 1 through day 10, versus placebo): greater in the CRS3123 treatment groups than in the placebo group
disruption of normal gut microbiota (gut microbiota; two lower doses (200, 400 mg), 10 days twice daily): minimal disruption
drug product stability, storage time [1]: at least 60 months
MIC90 (C. difficile [2]): 1 µg/mL (≈ 1.95 µM)
protection of hamsters against recurrence (C. difficile [3]): superior to vancomycin
share of oral dose metabolized into glucuronide conjugates detectable in urine [4]: a small fraction
systemic absorption following oral dosing ([4]; preclinical testing and SAD study 100 mg to 1,200 mg): low systemic absorption
safety and tolerability ([4]; single oral doses 100 mg to 1,200 mg): safe and well tolerated
susceptibility of strains expressing type 2 MetRS [5]: virtually no susceptibility
